Where two headings read alike, the source gives them in different places. Each block holds one compound with its values, some of them ahead of it.
Key:
[1] = relative to hydrocortisone; cited from earlier work
[2] = relative to hydrocortisone; cited from earlier work; remark: listed apart in the source
[3] = test system: hypothalamic-pituitary-adrenal axis suppression; settings: cited from earlier work
[4] = test system: adult patients with severe sepsis who were not in septic shock; assay: HYPRESS case-control analysis, hydrocortisone vs. placebo by bio-ADM </>70 pg/mL (PP population); assay type: in vivo, human; settings: for patients who developed shock: PP population
Method: The HYPRESS study is a double-blind, randomized clinical trial conducted from Jan. 13, 2009, to Aug. 27, 2013, with a follow-up of 180 days until Feb. 23, 2014 (Keh et al. 2016. JAMA 316(17): 1775-1785). The trial was performed in 34 intermediate or intensive care units of university and community hospitals in Germany, and it included 380 adult patients with severe sepsis who were not in septic shock.
Patients were screened in intermediate care units or intensive care units (ICUs) of university and community hospitals for eligibility, and written informed consent was obtained from patients, patient-authorized representatives, or legal representatives. Patients were enrolled if they met all inclusion criteria: (1) provided informed consent; (2) had evidence of infection; (3) had evidence of a systemic response to infection, defined as at least 2 systemic inflammatory response syndrome criteria 12; and (4) had evidence of organ dysfunction present for not longer than 48 hours. The main exclusion criterion was septic shock. Other exclusion criteria were being younger than 18 years, having known hypersensitivity to hydrocortisone or mannitol (placebo), or having a history of glucocorticoid medication with indication for continuation of therapy or other indications for treatment with glucocorticoids. Patients were not excluded for using etomidate within 72 hours before enrolment, using a short course of glucocorticoids within 72 hours before enrolment, or using topical or inhaled glucocorticoids.
Septic shock was defined as sepsis-induced hypotension despite adequate volume status for longer than 4 hours (ie, mean arterial pressure <65 mm Hg, systolic arterial pressure <90 mm Hg, or the use of vasopressors to keep mean arterial pressure ≥65 mm Hg or systolic arterial pressure ≥90 mm Hg). […] Adequate volume status was defined as a central venous pressure of 8 mm Hg or greater (≥12 mm Hg in ventilated patients) and a central venous oxygen saturation greater than 70%. For fluid replacement, patients were to receive at least 500 to 1000 mL of crystalloids or 300 to 500 mL of colloids over 30 minutes. The use of hydroxyethyl starch preparations was discouraged owing to possible harmful effects on kidney function. Use of vasopressors was defined as therapy with dopamine at a dosage of at least 5 μg/kg/min or with any dose of epinephrine, norepinephrine, vasopressin, or other vasopressors.
The study medication (hydrocortisone and placebo) was produced and released by BAG Health Care GmbH. The medication was delivered in boxes, each containing 17 brown glass vials for 1 patient. Each vial contained 100 mg of lyophilized hydrocortisone hydrogen succinate or the same amount of lyophilized mannitol as placebo, which was indistinguishable from hydrocortisone. The medication was administered as an intravenous bolus of 50 mg, followed by a 24-hour continuous infusion of 200 mg on 5 days, 100 mg on days 6 and 7, 50 mg on days 8 and 9, and 25 mg on days 10 and 11.
For the present analysis, a total of n=110 cases and controls from the intention-to-treat data set of the SepNet study HYPRESS study (ClinicalTrials.gov number: NCT00670254) were selected, of which n=97 were treated according to protocol and selected for the analysis. Patients with and without septic shock during their ICU stay were selected at a 1:1 ratio. Control patients were matched according to demographics, organ dysfunction, concomitant medication and other outcomes.
The primary end point for the case-control study was the occurrence of septic shock within 28 days, or discharge from the ICU. The goal was to identify potential interaction between the levels of bio-ADM (</>70 pg/mL) and treatment arm (hydrocortisone vs. placebo).

[5] = test system: patients with septic shock; settings: hydrocortisone alone; cited from earlier work
[6] = test system: patients at risk for sepsis / septic shock; settings: preventive administration; cited from earlier work
[7] = Stability of human Adrenomedullin in human Citrate plasma at 24° C.; assay type: in vitro ADME; settings: for recovery: 10 ng ADM/ml, read-out: Average ADM recovery (N = 5); for Average loss of immune reactivity: average over time points
Method: Human ADM was diluted in human Citrate plasma (n=5, final concentration 10 ng ADM/ml) and incubated at 24° C. At selected time points, aliquots were frozen at −20° C.

SMILES: CC(=O)OCC(=O)[C@@]1(O)CC[C@H]2[C@@H]3CCC4=CC(=O)CC[C@]4(C)[C@H]3C(=O)C[C@@]21C [Cortisone acetate]
Potency relat. to hydrocortisone, Anti-inflammatory [1]: 0.8
Potency relat. to hydrocortisone, Mineralcorticoid [2]: 0.8
Half-life duration of action [3]: 8 to 12 h

SMILES: C[C@]12CCC(=O)C=C1CC[C@H]1[C@@H]3CC[C@](O)(C(=O)CO)[C@@]3(C)C[C@H](O)[C@@]12F [Fludrocortisone]
Half-life duration of action [3]: 24 to 36 h

SMILES: C[C@]12CCC(=O)C=C1CC[C@@H]1[C@@H]2[C@@H](O)C[C@@]2(C)[C@H]1CC[C@]2(O)C(=O)CO [Hydrocortisone]
needed additional treatment with Benzodiazepine ([4]; patients with bio-AD<70 pg/mL): 12.0%
median length of stay ([4]; patients with bio-ADM<70 pg/mL): 22 days
needed a surgical intervention ([4]; patients with bio-ADM<70 pg/mL): 48.0%
needed additional treatment with Propofol ([4]; patients with bio-ADM<70 pg/mL): 16.0%
needed additional treatment with opioids ([4]; patients with bio-ADM<70 pg/mL): 40.0%
survived the 90-day follow up ([4]; patients with bio-ADM<70 pg/mL): 76.0%
patients who developed shock ([4]; patients with bio-ADM<70 pg/mL): 40%
median length of stay ([4]; patients with bio-ADM>70 pg/mL): 25 days
needed a surgical intervention ([4]; patients with bio-ADM>70 pg/mL): 27.3%
needed additional treatment with Benzodiazepine ([4]; patients with bio-ADM>70 pg/mL): 13.6%
needed additional treatment with Propofol ([4]; patients with bio-ADM>70 pg/mL): 4.5%
needed additional treatment with opioids ([4]; patients with bio-ADM>70 pg/mL): 31.8%
survived the 90-day follow up ([4]; patients with bio-ADM>70 pg/mL): 72.7%
patients who developed shock ([4]; patients with bio-ADM>70 pg/mL): 50%
Potency relat. to hydrocortisone, Anti-inflammatory [1]: 1
Potency relat. to hydrocortisone, Mineralcorticoid [2]: 1
survival effect [5]: no survival effect
risk of a septic shock within 14 days [6]: doesn't reduces the risk
Half-life duration of action [3]: 8 to 12 h

SMILES: C[C@H]1C[C@@H]2[C@H]([C@@H](O)C[C@@]3(C)[C@H]2CC[C@]3(O)C(=O)CO)[C@@]2(C)C=CC(=O)C=C12 [Methylprednisolone]
Half-life duration of action [3]: 12 to 36 h

SMILES: C[C@]12C=CC(=O)C=C1CC[C@@H]1[C@@H]2[C@@H](O)C[C@@]2(C)[C@H]1CC[C@]2(O)C(=O)CO [Prednisolone]
Potency relat. to hydrocortisone, Anti-inflammatory [1]: 4
Potency relat. to hydrocortisone, Mineralcorticoid [2]: 0.8
Half-life duration of action [3]: 12 to 36 h

SMILES: C[C@]12C=CC(=O)C=C1CC[C@@H]1[C@@H]2C(=O)C[C@@]2(C)[C@H]1CC[C@]2(O)C(=O)CO [Prednisone]
Half-life duration of action [3]: 12 to 36 h

recovery ([7]; 0 h): 100%
Loss of immune reactivity %/h ([7]; 2 h): 0.4 %/h
recovery ([7]; 2 h): 99.2%
Loss of immune reactivity %/h ([7]; 4 h): 0.8 %/h
recovery ([7]; 4 h): 96.4%
Loss of immune reactivity %/h ([7]; 8 h): 1.5 %/h
recovery ([7]; 8 h): 88.2%
Average loss of immune reactivity [7]: Average: 0.9%/h
Average loss of immune reactivity ([7]; listed as ADM): 0.9 %/h
metabolised at 2 h, 10 ng/ml ([7]; human citrate plasma, 2 h, read-out: Relative loss of immune reactivity): 0.8%
metabolised at 4 h, 10 ng/ml ([7]; human citrate plasma, 4 h, read-out: Relative loss of immune reactivity): 3.6%
metabolised at 8 h, 10 ng/ml ([7]; human citrate plasma, 8 h, read-out: Relative loss of immune reactivity): 11.8%
SMILES: CC[C@H](C)[C@H](NC(=O)[C@H](CCC(N)=O)NC(=O)[C@H](Cc1c[nH]cn1)NC(=O)[C@H](C)NC(=O)[C@H](CC(C)C)NC(=O)[C@H](CCCCN)NC(=O)[C@H](CCC(N)=O)NC(=O)[C@@H](NC(=O)[C@@H](NC(=O)[C@@H]1CSSC[C@H](NC(=O)CNC(=O)[C@H](Cc2ccccc2)NC(=O)[C@H](CO)NC(=O)[C@H](CCCNC(=N)N)NC(=O)[C@H](CC(C)C)NC(=O)CNC(=O)[C@H](CCC(N)=O)NC(=O)[C@H](Cc2ccccc2)NC(=O)[C@H](CC(N)=O)NC(=O)[C@H](CC(N)=O)NC(=O)[C@H](CCSC)NC(=O)[C@H](CO)NC(=O)[C@H](CCC(N)=O)NC(=O)[C@H](CCCNC(=N)N)NC(=O)[C@@H](N)Cc2ccc(O)cc2)C(=O)N[C@@H](CCCNC(=N)N)C(=O)N[C@@H](Cc2ccccc2)C(=O)NCC(=O)N[C@@H]([C@@H](C)O)C(=O)N1)[C@@H](C)O)C(C)C)C(=O)N[C@@H](Cc1ccc(O)cc1)C(=O)N[C@@H](CCC(N)=O)C(=O)N[C@@H](Cc1ccccc1)C(=O)N[C@H](C(=O)N[C@@H](CC(=O)O)C(=O)N[C@@H](CCCCN)C(=O)N[C@@H](CC(=O)O)C(=O)N[C@@H](CCCCN)C(=O)N[C@@H](CC(=O)O)C(=O)N[C@@H](CC(N)=O)C(=O)N[C@H](C(=O)N[C@@H](C)C(=O)N1CCC[C@H]1C(=O)N[C@@H](CCCNC(=N)N)C(=O)N[C@@H](CO)C(=O)N[C@@H](CCCCN)C(=O)N[C@H](C(=O)N[C@@H](CO)C(=O)N1CCC[C@H]1C(=O)N[C@@H](CCC(N)=O)C(=O)NCC(=O)N[C@@H](Cc1ccc(O)cc1)C(N)=O)[C@@H](C)CC)C(C)C)[C@@H](C)O [hADM]

Reference: patent US20240255531A1, “MATURE ADRENOMEDULLIN FOR THERAPY STRATIFICATION OF CORTICOSTEROIDS IN CRITICALLY ILL PATIENTS” (priority 2021, published 2024)
